Assay results as given in the supplement of paper PMC12463676, “Small-molecule dissolution of stress granules by redox modulation benefits ALS models” (Nature Chemical Biology, 2025).

How the values were obtained:
potassium arsenate = compound: O=[As]([O-])(O)O.[K+] [potassium arsenate]; experiment: thermal stability z-score vs DMSO; higher = more thermally stabilized by treatment; settings: HeLa; arsenate concentration 1 mM
Protocol: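 Cellular thermal proteome profiling in HeLa cells treated with 1 mM arsenate for 1 h (DMSO pretreatment), heated to ten temperatures (37-66.3 °C). Soluble protein was quantified by TMT mass spectrometry relative to DMSO controls; the thermal stability score was transformed to a z-score; mean of n = 3 experiments.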

lipoamide = compound: NC(=O)CCCCC1CCSS1 [lipoamide]; experiment: as above; settings: HeLa, lipoamide concentration 100 µM
Protocol: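 Cellular thermal proteome profiling in HeLa cells. Cells were treated with 100 µM lipoamide for 1 h, with or without 1 mM arsenate for a further 1 h, then heated to ten temperatures (37-66.3 °C), and soluble protein was quantified by TMT mass spectrometry relative to 0.1% DMSO controls. The thermal stability score (sum of log2 fold changes minus the abundance score) was transformed to a z-score; mean of n = 3 experiments.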

[1] = arsenate co-treatment: 1 mM arsenate 1 h
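Further: each temperature applied for 3 min, abundance score taken as mean log2 fold change at the two lowest temperatures, z-score obtained by mean subtraction and division by SD.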

Sequence of UniProt O60890 (O60890 whole entry): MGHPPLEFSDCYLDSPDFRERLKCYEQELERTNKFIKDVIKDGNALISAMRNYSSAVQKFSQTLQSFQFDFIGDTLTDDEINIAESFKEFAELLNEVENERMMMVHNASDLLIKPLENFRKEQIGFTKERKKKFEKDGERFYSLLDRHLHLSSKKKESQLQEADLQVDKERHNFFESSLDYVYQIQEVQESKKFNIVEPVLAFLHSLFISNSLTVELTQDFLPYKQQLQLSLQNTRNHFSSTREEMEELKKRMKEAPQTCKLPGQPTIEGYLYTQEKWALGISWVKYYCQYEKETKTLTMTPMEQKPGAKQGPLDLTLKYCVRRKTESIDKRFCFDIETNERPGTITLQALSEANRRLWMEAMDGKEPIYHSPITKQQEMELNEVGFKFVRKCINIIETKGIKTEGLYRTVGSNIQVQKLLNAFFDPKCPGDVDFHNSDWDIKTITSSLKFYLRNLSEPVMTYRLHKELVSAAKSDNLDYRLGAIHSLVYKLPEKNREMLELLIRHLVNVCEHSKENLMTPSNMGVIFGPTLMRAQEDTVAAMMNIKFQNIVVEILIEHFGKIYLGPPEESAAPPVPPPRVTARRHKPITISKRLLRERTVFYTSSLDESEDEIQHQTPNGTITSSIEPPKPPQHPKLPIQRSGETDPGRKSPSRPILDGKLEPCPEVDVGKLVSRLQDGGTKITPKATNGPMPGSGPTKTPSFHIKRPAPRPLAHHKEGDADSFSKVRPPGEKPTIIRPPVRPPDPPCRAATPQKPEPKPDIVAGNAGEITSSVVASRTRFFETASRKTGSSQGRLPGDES
Sequence of UniProt Q9Y6B7 (Q9Y6B7 whole entry): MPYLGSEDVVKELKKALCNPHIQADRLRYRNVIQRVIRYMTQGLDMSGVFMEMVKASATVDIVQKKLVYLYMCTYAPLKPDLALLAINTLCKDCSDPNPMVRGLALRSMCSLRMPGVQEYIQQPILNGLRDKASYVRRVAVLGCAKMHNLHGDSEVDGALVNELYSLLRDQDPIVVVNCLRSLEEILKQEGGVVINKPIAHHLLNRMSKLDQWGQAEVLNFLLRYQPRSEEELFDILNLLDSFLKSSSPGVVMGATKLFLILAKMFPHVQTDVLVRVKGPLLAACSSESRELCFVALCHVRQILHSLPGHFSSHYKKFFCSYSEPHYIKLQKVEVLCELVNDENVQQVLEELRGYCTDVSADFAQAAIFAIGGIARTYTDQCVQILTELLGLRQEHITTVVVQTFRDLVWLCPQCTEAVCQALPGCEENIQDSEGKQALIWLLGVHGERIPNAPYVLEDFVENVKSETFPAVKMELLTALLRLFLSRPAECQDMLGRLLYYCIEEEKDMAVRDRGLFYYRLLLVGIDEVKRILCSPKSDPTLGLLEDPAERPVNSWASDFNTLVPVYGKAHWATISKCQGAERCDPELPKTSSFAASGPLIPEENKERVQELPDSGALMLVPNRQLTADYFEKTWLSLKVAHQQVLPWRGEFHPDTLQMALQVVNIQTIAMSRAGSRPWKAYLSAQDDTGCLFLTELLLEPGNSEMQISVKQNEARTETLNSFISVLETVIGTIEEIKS
Sequence of UniProt O60504 (O60504 whole entry): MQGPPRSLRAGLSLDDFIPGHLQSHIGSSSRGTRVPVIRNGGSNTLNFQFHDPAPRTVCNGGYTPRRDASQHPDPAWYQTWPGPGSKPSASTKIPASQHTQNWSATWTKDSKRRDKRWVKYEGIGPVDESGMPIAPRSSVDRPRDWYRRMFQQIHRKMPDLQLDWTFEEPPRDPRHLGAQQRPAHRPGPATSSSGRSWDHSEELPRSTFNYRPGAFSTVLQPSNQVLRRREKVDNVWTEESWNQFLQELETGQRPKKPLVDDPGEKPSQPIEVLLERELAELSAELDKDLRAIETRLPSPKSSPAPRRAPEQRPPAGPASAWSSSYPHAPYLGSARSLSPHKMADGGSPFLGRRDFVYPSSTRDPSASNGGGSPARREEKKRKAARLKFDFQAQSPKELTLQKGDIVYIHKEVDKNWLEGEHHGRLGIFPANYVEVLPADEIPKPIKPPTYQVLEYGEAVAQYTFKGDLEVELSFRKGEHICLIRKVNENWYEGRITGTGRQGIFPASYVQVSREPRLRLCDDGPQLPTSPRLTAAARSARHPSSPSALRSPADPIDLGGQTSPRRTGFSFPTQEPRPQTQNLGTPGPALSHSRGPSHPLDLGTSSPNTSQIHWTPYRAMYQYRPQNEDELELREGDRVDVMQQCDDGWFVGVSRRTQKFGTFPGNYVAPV
Sequence of UniProt Q96HC4 (Q96HC4 whole entry): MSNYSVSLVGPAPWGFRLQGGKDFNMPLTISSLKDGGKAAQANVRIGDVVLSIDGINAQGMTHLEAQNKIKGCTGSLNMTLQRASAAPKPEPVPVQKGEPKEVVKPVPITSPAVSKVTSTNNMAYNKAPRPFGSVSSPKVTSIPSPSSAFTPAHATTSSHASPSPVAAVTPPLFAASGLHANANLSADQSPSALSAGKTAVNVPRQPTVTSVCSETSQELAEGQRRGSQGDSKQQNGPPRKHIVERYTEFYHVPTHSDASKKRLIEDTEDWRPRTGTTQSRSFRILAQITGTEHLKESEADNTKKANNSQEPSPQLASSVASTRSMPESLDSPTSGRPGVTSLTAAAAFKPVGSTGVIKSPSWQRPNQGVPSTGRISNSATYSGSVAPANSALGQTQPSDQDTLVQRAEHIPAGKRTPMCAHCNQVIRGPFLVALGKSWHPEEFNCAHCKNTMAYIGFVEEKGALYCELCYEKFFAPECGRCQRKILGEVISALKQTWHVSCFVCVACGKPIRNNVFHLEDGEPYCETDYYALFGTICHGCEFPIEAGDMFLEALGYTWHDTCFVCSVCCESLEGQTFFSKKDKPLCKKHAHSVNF
Sequence of UniProt O43924 (O43924 whole entry): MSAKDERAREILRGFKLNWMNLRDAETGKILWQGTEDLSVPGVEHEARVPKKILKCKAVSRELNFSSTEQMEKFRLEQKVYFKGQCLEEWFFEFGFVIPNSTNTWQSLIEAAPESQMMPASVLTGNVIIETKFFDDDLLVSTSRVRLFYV
Sequence of UniProt O15530 (O15530 whole entry): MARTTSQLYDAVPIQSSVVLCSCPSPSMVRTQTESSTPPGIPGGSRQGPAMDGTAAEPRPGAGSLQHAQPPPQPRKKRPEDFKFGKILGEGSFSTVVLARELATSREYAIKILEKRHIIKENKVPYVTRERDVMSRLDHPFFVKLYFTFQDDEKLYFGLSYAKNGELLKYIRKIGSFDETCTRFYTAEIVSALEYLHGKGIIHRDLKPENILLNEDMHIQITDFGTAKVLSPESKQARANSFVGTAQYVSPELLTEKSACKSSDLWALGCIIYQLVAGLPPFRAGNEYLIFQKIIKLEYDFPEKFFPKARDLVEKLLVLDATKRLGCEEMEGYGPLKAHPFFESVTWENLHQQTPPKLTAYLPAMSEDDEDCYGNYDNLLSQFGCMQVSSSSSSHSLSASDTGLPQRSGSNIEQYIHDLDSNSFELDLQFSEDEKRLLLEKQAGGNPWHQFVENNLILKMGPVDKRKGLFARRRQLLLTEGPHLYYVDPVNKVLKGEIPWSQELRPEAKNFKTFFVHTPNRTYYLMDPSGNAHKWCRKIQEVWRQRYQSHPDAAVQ
Sequence of UniProt Q9UJS0 (Q9UJS0 whole entry): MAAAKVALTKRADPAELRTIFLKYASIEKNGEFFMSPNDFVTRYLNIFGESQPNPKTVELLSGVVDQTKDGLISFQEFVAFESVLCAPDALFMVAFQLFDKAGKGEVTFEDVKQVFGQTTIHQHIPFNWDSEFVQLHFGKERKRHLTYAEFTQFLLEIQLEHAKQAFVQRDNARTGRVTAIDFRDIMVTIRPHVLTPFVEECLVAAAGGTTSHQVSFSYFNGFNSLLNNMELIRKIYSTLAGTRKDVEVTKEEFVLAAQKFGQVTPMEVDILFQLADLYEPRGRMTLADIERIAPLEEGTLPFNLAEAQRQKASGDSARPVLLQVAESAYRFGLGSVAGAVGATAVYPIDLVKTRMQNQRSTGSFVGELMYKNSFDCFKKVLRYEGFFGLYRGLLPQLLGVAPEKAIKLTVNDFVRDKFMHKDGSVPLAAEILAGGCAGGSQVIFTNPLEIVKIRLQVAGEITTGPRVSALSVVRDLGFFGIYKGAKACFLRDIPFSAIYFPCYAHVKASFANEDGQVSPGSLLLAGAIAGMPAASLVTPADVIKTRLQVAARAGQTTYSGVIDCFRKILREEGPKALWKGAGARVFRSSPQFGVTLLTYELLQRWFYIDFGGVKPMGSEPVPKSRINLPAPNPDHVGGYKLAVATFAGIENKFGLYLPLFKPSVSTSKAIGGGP
Sequence of UniProt P62195 (P62195 whole entry): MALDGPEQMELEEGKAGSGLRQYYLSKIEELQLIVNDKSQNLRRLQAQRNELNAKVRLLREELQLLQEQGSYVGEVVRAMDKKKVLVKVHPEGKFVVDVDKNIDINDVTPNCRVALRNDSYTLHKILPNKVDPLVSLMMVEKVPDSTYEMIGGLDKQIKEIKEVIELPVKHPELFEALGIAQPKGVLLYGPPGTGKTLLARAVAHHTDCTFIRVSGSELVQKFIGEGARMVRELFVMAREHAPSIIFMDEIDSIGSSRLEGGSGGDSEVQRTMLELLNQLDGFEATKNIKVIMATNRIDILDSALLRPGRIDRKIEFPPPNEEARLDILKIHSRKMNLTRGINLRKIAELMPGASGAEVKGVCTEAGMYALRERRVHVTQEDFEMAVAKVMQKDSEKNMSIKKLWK
Sequence of UniProt Q96IZ6 (Q96IZ6 whole entry): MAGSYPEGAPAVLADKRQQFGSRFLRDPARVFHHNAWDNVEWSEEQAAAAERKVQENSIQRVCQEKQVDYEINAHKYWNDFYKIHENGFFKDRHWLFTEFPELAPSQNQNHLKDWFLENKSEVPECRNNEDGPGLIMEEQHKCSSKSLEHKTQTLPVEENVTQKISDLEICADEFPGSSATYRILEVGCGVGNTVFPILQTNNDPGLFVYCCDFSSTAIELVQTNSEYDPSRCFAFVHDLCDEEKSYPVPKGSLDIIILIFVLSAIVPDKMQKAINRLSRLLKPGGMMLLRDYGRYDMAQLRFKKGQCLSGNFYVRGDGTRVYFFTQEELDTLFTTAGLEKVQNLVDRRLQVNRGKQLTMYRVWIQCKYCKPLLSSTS

Target	thermal stability z-score (potassium arsenate)	thermal stability z-score (lipoamide; [1])	thermal stability z-score (lipoamide; arsenate co-treatment: none)
GALE (UniProt Q14376)	-2.31	0.0359	-0.161
KATNAL1 (UniProt Q9BW62)	-0.0764	0.798	-0.886
OSBPL9 (UniProt Q96SU4)	0.219	-0.647	-0.627
PPFIBP1 (UniProt Q86W92)	0.32	-0.215	0.229
PAGE1 (UniProt O75459)	-0.636	0.147	0.51
DHX29 (UniProt Q7Z478)	0.267	0.104	0.27
SDR39U1 (UniProt Q9NRG7)	0.471	0.717	0.0552
OPHN1 (UniProt O60890)	0.0261	-0.0389	0.0614
PPM1F (UniProt P49593)	-0.617	-0.361	-0.757
YEATS4 (UniProt O95619)	-0.33	0.802	0.865
HAUS8 (UniProt Q9BT25)	1.71	0.268	0.632
PDSS1 (UniProt Q5T2R2)	0.423	0.272	0.466
AGPS (UniProt O00116)	-0.854	-1.96	-1.23
RNF219 (UniProt Q5W0B1)	0.0297	-0.038	-0.0978
POLR3D (UniProt P05423)	-1.56	0.483	-0.501
RNF113A (UniProt O15541)	-0.554	-0.642	-0.0196
TOM1L2 (UniProt Q6ZVM7)	0.0525	-0.00565	-0.0362
POMGNT1 (UniProt Q8WZA1)	-0.0541	-0.429	0.0715
SLC25A13 (UniProt Q9UJS0)	-0.312	-0.445	-0.77
EXOSC6 (UniProt Q5RKV6)	-1.85	0.123	0.0946
NMD3 (UniProt Q96D46)	-0.0507	0.204	0.115
CTBP1 (UniProt Q13363)	0.629	1.13	-0.19
SPATA5 (UniProt Q8NB90)	-0.0295	0.389	0.148
PSMC5 (UniProt P62195)	-0.667	-0.299	-0.397
PDPK1 (UniProt O15530)	0.451	0.174	0.131
TMEM160 (UniProt Q9NX00)	0.0213	-0.0998	0.628
ARPC2 (UniProt O15144)	-1.15	-0.317	-0.205
EMC10 (UniProt Q5UCC4)	0.0739	-0.0818	-0.577

Target	thermal stability z-score (potassium arsenate)	thermal stability z-score (lipoamide; [1])	thermal stability z-score (lipoamide; arsenate co-treatment: none)
MOB2 (UniProt Q70IA6)	0.0529	-0.235	-0.176
TUBGCP4 (UniProt Q9UGJ1)	0.141	-0.259	-0.815
AP4B1 (UniProt Q9Y6B7)	-0.137	0.0905	-0.147
RABL2A|RABL2B	-0.151	0.0788	-0.011
SFR1 (UniProt Q86XK3)	0.036	-0.12	-0.359
DDRGK1 (UniProt Q96HY6)	0.397	-1.17	-0.728
CAV2 (UniProt P51636)	1.51	1.26	-0.268
UTP18 (UniProt Q9Y5J1)	0.516	0.058	-0.244
DDX41 (UniProt Q9UJV9)	-0.204	-0.196	-0.0709
DNAJB6 (UniProt O75190)	0.728	1.19	0.248
RYBP (UniProt Q8N488)	-0.269	-0.607	-0.174
GK (UniProt P32189)	0.46	0.371	0.195
BBX (UniProt Q8WY36)	-0.402	-0.177	-0.12
PDLIM5 (UniProt Q96HC4)	-2.23	-0.252	-0.371
CYP20A1 (UniProt Q6UW02)	0.0905	0.107	0.633
C9ORF64 (UniProt Q5T6V5)	-0.254	-0.191	0.121
PDE6D (UniProt O43924)	0.912	0.899	0.515
DENND4B (UniProt O75064)	0.288	0.182	-0.0196
GDAP2 (UniProt Q9NXN4)	-0.255	-0.0509	-0.305
NUB1 (UniProt Q9Y5A7)	1.15	-0.391	0.421
SORBS3 (UniProt O60504)	-0.323	-0.117	0.0779
PSAT1 (UniProt Q9Y617)	-0.653	0.659	0.402
PLAUR (UniProt Q03405)	-0.768	-1.4	-2.11
CHSY1 (UniProt Q86X52)	-0.171	-0.212	-0.333
SLC4A7 (UniProt Q9Y6M7)	-0.747	-0.0849	0.00104
PSMG3 (UniProt Q9BT73)	0.28	0.436	-0.0166
METTL2A (UniProt Q96IZ6)	-0.0971	0.394	0.528
